Measured values from ChEMBL document CHEMBL4342426, “Structure-activity relationship of 4-azaindole-2-piperidine derivatives as agents against Trypanosoma cruzi” (Bioorg Med Chem Lett, 2020).

Assays:
cells = conditions: Homo sapiens, MRC-5 SV2, 72 h
Description: (§1) Cytotoxicity against human MRC5 SV2 cells assessed as reduction in cell viability incubated for 3 days by fluorimetry

Macrophage = experiment: cells; conditions: Mus musculus, 72 h
Description: (§2) Cytotoxicity against mouse peritoneal Macrophage cells assessed as reduction in cell viability incubated for 3 days by fluorimetry

in vitro [1] = conditions: human, MRC5 SV2 cells
Description: as §1

in vitro [2] = conditions: human, liver microsomes
Description: Metabolic stability in human liver microsomes assessed as intrinsic clearance at 0.5 uM incubated for 30 mins by LC-MS/MS analysis

in vitro [3] = conditions: mouse, liver microsomes
Description: Metabolic stability in mouse liver microsomes assessed as intrinsic clearance at 0.5 uM incubated for 30 mins by LC-MS/MS analysis

physchem = conditions: buffer, pH 7.4
Description: Lipophilicity, logD of compound at pH 7.4 by HPLC analysis

in vitro [4] = conditions: human, MRC5 SV2 cells; remark: listed apart in the source
Description: Selectivity index, ratio of IC50 for human MRC5 SV2 cells to IC50 for Trypanosoma cruzi Tulahuen CL2 amastigotes infected in human MRC5 SV2 cells

in vitro [5] = conditions: mouse, peritoneal macrophages
Description: as §2

in vitro [6] = conditions: PAMPA
Description: Effective permeability of compound by PAMPA assay

Trypanosoma cruzi = experiment: microbe, parasite or virus in culture; conditions: Tulahuen CL2, MRC-5 SV2, 168 h
Description: Antitrypanosomal activity against Trypanosoma cruzi Tulahuen CL2 amastigotes infected in human MRC5 SV2 cells incubated for 7 days by chlorophenol red beta-D-galactopyranoside substrate based spectrophotometric assay

Trypanosoma brucei = experiment: microbe, parasite or virus in culture; conditions: Squib 427, 72 h
Description: Antitrypanosomal activity against Trypanosoma brucei Squib 427 assessed as reduction in parasite growth incubated for 72 hrs by resazurin dye based fluorimetric analysis

[7] = system: Trypanosoma brucei rhodesiense; experiment: microbe, parasite or virus in culture; conditions: STIB900, 72 h
Description: Antiprotozoal activity against Trypanosoma brucei rhodesiense STIB900 trypomastigotes incubated for 72 hrs by resazurin dye based fluorimetric analysis

Leishmania infantum = experiment: microbe, parasite or virus in culture; conditions: for IC50: MHOM/MA(BE)/67/ITMAP263, 120 h; for IC90: MHOM/MA(BE)/67/ITMAP263, in Mus musculus, 120 h
Description: Antileishmanial activity against amastigote stage of Leishmania infantum MHOM/MA(BE)/67/ITMAP263 infected in mouse peritoneal macrophage assessed as parasite growth inhibition incubated for 5 days by Giemsa staining based assay

in vitro [8] = conditions: mouse, liver microsomes; remark: listed apart in the source
Description: Metabolic stability in mouse liver microsomes assessed as fraction unbound at 0.5 uM incubated for 30 mins by LC-MS/MS analysis

Structure (SMILES) | IC50 (cells) [µM] | IC50 (Macrophage) [µM] | IC90 at 72 h (in vitro [1]) [µM] | CLint scaled at 0.5 h, 0.5 µM (in vitro [2]) [mL/min/kg] | microsomal CLint at 0.5 h, 0.5 µM (in vitro [2]) [µL/min/mg] | CLint scaled at 0.5 h, 0.5 µM (in vitro [3]) [mL/min/kg] | microsomal CLint at 0.5 h, 0.5 µM (in vitro [3]) [µL/min/mg] | logD (physchem) | selectivity ratio (in vitro [4]) | IC90 at 72 h (in vitro [5]) [µM] | Papp (in vitro [6]) [×10⁻⁶ cm/s] | IC50 (Trypanosoma cruzi) [µM] | IC90 (Trypanosoma cruzi) [µM] | IC50 (Trypanosoma brucei) [µM] | IC90 (Trypanosoma brucei) [µM] | IC50 [7] [µM] | IC90 [7] [µM] | IC50 (Leishmania infantum) [µM] | IC90 (Leishmania infantum) [µM] | fraction unbound at 0.5 h, 0.5 µM (in vitro [8])
COc1ccc(C(=O)N2CCCC(c3cc4ncccc4[nH]3)C2)cc1OC (configuration not stated) | 64 | 64 | 64 | < 32.2 | < 23 | 564 | 137 | 2.61 | 7.15 | 64 | 1.58 | 8.96 | 64 | 64 | 64 | 64 | 64 | 64 | 64 | –
Cc1ccoc1C(=O)N1CCCC(c2cc3ncccc3[nH]2)C1 (configuration not stated) | 64 | 64 | 64 | 167 | 129 | 6690 | 1750 | 2.86 | 3 | 64 | 3.09 | 21.3 | 55.5 | 64 | 64 | 64 | 64 | 64 | 64 | –
Cc1nc(C)c(C(=O)N2CCCC(c3cc4ncccc4[nH]3)C2)s1 (configuration not stated) | 64 | 64 | 64 | 29.5 | 26.2 | 774 | 233 | 2.3 | – | 64 | 2.88 | 64 | 64 | 64 | 64 | 64 | 64 | 64 | 64 | 0.96
CC(C)(C)OC(=O)N1CCCC(c2cn3nc(Cl)ccc3n2)C1 (configuration not stated) | 64 | 64 | 64 | > 200 | 185 | > 11300 | 3540 | 4.04 | 2.15 | 64 | 22.4 | 29.5 | 60.3 | 64 | 64 | 64 | 64 | 64 | 64 | –
O=C(c1ccc(F)cc1)N1CC=C(c2cc3ncccc3[nH]2)CC1 | 64 | 64 | 64 | ≥ 38 | 35.2 | ≥ 623 | 195 | 3.06 | 25.1 | 64 | 0.907 | 2.54 | 64 | 64 | 64 | 39.4 | 64 | 39.1 | 58.5 | –
O=C(c1ccc(F)cc1)N1CCC(c2cc3ncccc3[nH]2)C1 (configuration not stated) | 64 | 64 | 64 | 68.7 | 44.6 | 5590 | 1230 | 2.62 | 7.15 | 64 | 1.58 | 8.99 | 64 | 64 | 64 | 43.9 | 64 | 64 | 64 | –
O=C(c1ccccc1)N1CCCC(c2cn3ncccc3n2)C1 (configuration not stated) | 64 | 64 | 64 | 167 | 135 | 10500 | 2900 | 2.39 | – | 64 | 13.9 | 64 | 64 | 64 | 64 | 64 | 64 | 64 | 64 | 0.877
O=C(c1ccccc1)N1CCCC(c2nc3ncccc3[nH]2)C1 (configuration not stated) | 64 | 64 | 64 | < 35 | < 23 | 763 | 173 | 1.97 | – | 64 | 2.43 | 64 | 64 | 64 | 64 | 64 | 64 | 64 | 64 | 0.723
CCN(CCC(=O)Nc1cccnc1)C(=O)c1ccc(F)cc1 | 64 | 64 | 64 | < 43.3 | < 23 | 140 | 25.1 | 2.03 | – | 64 | 5.23 | 64 | 64 | 64 | 64 | 64 | 64 | 64 | 64 | 0.571
O=C(CCc1nc2cccnc2n1CCO)Nc1ccccc1 | 64 | 64 | 64 | < 35 | < 23 | 281 | 62.1 | 1.85 | – | 64 | 3.98 | 64 | 64 | 64 | 64 | 64 | 64 | 64 | 64 | 0.705
O=C(c1ccccc1)N1CCN(c2nc3ccccc3s2)CC1 | 64 | 64 | 64 | – | – | 24700 | 4010 | 3.4 | – | 64 | 40.4 | 64 | 64 | 64 | 64 | 64 | 64 | 64 | 64 | 0.518
